Numbered stars: 1 amine (or outer) side, 2 acyl side, 3 side chain; on linkers, the order of the positions; unused ones are H or OH. Square brackets hold non-standard residues; d marks the D form. Side chains are listed from the residue outwards. Peptide text beside a SMILES is read from it. * marks the point of attachment. C18 diacid = O=C(O)CCCCCCCCCCCCCCCCC(=O)*; αMePhe(2-F) = C[C@](N)(Cc1ccccc1F)C(=O)O; γGlu = O=C(O)[C@H](CCC(=O)[*:2])N[*:1]; αMeY = C[C@](N)(Cc1ccc(O)cc1)C(=O)O; αMeL = CC(C)C[C@](C)(N)C(=O)O; Orn = NCCC[C@H](N)C(=O)O; AEEA = NCCOCCOCC(=O)O; Aib = CC(C)(N)C(=O)O

From US12252524B2, “GIP/GLP1 co-agonist compounds” (Eli Lilly and Company, priority 2018, dated 2025) come the findings set out here.

In one assay the target is T1, human Gcg receptor (Homo sapiens, UniProt P47871).
T1 construct: expressed in transfected cells; crude membranes
T1 sequence (P47871 26-477): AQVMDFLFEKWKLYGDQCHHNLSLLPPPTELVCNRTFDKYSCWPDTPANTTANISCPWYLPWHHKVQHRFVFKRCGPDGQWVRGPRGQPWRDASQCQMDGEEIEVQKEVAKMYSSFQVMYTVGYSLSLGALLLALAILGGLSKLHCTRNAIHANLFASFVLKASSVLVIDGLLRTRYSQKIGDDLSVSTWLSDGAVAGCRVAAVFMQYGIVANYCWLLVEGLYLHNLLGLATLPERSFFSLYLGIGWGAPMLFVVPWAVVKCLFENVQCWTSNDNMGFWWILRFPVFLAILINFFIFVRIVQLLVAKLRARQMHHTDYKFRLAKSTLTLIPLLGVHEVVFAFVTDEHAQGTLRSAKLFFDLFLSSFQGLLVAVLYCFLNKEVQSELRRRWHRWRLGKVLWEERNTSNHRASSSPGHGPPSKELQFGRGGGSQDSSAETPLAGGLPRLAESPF
The assay can be described thus: [125I]-Glucagon binding (SPA), human Gcg receptor. The following applies: read-out: hGLcgR Ki, nM (SEM, n). An outline of the steps: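 Cell pellets were lysed in hypotonic Tris buffer, pH 7.5, homogenized, and spun at low then high speed to give crude membranes. Ki was derived from the fitted IC50.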

Assay [1] addresses human GLP-1 receptor (GLP-1R) (Homo sapiens, UniProt P43220). The assay can be described thus: cAMP pharmacological functional assay in presence of casein, hGLP-1R. The following applies: HEK293 cells expressing hGLP-1R, 0.1% Casein, geometric mean; read-out: hGLP1R cAMP Rel EC50 nM (SEM, n). Type of assay: cell-based.
For assay [2], the target named is T2, gastric inhibitory peptide receptor (GIPR) (Homo sapiens, UniProt P48546).
T2 sequence (P48546 22-466): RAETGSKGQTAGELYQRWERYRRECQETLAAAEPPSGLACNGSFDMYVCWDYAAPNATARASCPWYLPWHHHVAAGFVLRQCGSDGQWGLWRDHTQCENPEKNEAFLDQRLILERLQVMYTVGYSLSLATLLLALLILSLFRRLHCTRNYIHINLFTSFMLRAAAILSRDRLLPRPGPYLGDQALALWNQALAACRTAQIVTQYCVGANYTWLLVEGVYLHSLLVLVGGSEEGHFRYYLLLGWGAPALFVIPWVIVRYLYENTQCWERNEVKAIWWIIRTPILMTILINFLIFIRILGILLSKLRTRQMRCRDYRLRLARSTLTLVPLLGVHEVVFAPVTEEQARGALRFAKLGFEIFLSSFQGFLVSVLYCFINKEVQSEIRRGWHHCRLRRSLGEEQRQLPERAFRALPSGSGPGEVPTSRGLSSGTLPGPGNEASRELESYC
The assay can be described thus: cAMP pharmacological functional assay in presence of casein, hGIPR. As to conditions: HEK293 cells expressing hGIPR, 0.1% Casein, geometric mean; read-out: hGIPR cAMP Rel EC50 nM (SEM, n). Type of assay: cell-based.

The next assay deals with T3, human GIP receptor (Homo sapiens, UniProt P48546).
T3 construct: expressed in transfected cells; crude membranes
T3 sequence (P48546 22-466): T2 sequence (P48546 22-466)
The assay can be described thus: [125I]-GIP binding (SPA), human GIP receptor. The following applies: read-out: hGIPR Ki, nM (SEM, n).

Another assay has as its target human GLP-1R (Homo sapiens, UniProt P43220). Briefly: [125I]-GLP-1 binding (SPA), human GLP-1 receptor. As to conditions: read-out: hGLP1R Ki, (nM) (SEM, n). The arrangement: expressed in transfected cells; crude membranes. An outline of the steps:
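Membranes: hypotonic lysis (50 mM Tris HCl, pH 7.5, protease inhibitors), Potter-Elvehjem homogenization, high-speed pellet (35000×g 1 h or 25000×g 30 min, 4° C.). Buffer: 25 mM HEPES pH 7.4, 2.5 mM CaCl2, 1 mM MgCl2. Four-parameter IC50 fit; Ki as geometric mean ± SEM.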

Sequence of human GLP-1R (P43220 24-463): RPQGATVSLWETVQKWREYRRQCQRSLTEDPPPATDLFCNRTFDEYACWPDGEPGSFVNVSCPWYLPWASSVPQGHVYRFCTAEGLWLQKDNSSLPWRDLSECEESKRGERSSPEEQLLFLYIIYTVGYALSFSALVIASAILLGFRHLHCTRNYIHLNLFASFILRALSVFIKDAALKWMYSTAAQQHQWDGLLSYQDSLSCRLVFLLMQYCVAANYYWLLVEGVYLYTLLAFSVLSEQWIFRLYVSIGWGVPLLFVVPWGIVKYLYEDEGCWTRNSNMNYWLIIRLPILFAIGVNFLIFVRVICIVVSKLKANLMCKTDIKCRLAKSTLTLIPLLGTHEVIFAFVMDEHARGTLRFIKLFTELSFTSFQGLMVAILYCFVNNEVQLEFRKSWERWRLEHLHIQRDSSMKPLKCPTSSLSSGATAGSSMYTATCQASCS
Sequence of human GLP-1 receptor (GLP-1R) (P43220 24-463): as above

In general, Ki refers to the dissociation constant of the complex between target and ligand, obtained from inhibition or displacement. One may read the EC50 as the concentration that produces a half-maximal response. Consider `CC[C@H](C)[C@H](NC(=O)[C@H](CC(C)C)NC(=O)[C@](C)(Cc1ccc(O)cc1)NC(=O)[C@@H](CCC(=O)O)NC(=O)[C@@H](NC(=O)[C@H](Cc1ccccc1)NC(=O)[C@@H](NC(=O)C(C)(C)NC(=O)[C@H](CCC(N)=O)NC(=O)[C@H](C)NC(=O)[C@H](CCCCNC(=O)COCCOCCNC(=O)COCCOCCNC(=O)CC[C@H](NC(=O)CCCCCCCCCCCCCCCCC(=O)O)C(=O)O)NC(=O)[C@H](CCCN)NC(=O)[C@H](CC(=O)O)NC(=O)[C@H](CC(C)C)NC(=O)[C@](C)(CC(C)C)NC(=O)[C@@H](NC(=O)[C@H](CO)NC(=O)[C@H](CC(C)C)NC(=O)[C@H](CC(=O)O)NC(=O)[C@H](CO)NC(=O)[C@@H](NC(=O)[C@](C)(Cc1ccccc1F)NC(=O)[C@@H](NC(=O)CNC(=O)[C@H](CCC(=O)O)NC(=O)C(C)(C)NC(=O)[C@@H](N)Cc1ccc(O)cc1)[C@@H](C)O)[C@@H](C)O)[C@@H](C)CC)[C@@H](C)O)[C@@H](C)CC)C(=O)N[C@@H](CCC(=O)O)C(=O)NCC(=O)NCC(=O)N1CCC[C@H]1C(=O)N[C@@H](CO)C(=O)N[C@@H](CO)C(=O)NCC(=O)N[C@@H](C)C(=O)N1CCC[C@H]1C(=O)N1CCC[C@H]1C(=O)N1CCC[C@H]1C(=O)N[C@@H](CO)C(N)=O` [Example 243] (H-Y[Aib]EGT[αMePhe(2-F)]TSDLSI[αMeL]LD[Orn]K([AEEA-AEEA-γGlu-C18 diacid])AQ[Aib]TFI[dE][αMeY]LIEGGPSSGAPPPS-NH2), for which the Ki was 145 nM on human Gcg receptor, 0.0325 nM on human GIP receptor and 0.67 nM on human GLP-1R. In addition, the figures for the EC50 in assay [1] and in assay [2] were 0.0265 nM and 0.0214 nM, respectively.
On the same counts, the results for `CC[C@H](C)[C@H](NC(=O)[C@H](CC(C)C)NC(=O)[C@](C)(Cc1ccc(O)cc1)NC(=O)[C@@H](CCC(=O)O)NC(=O)[C@@H](NC(=O)[C@H](Cc1ccccc1)NC(=O)[C@H](C)NC(=O)C(C)(C)NC(=O)[C@H](CCC(N)=O)NC(=O)[C@H](C)NC(=O)[C@H](CCCCNC(=O)COCCOCCNC(=O)COCCOCCNC(=O)CC[C@H](NC(=O)CCCCCCCCCCCCCCCCC(=O)O)C(=O)O)NC(=O)[C@H](CCCN)NC(=O)[C@H](CC(=O)O)NC(=O)[C@H](CC(C)C)NC(=O)[C@](C)(CC(C)C)NC(=O)[C@@H](NC(=O)[C@H](CO)NC(=O)[C@H](CC(C)C)NC(=O)[C@H](CC(=O)O)NC(=O)[C@H](CO)NC(=O)[C@@H](NC(=O)[C@](C)(Cc1ccccc1F)NC(=O)[C@@H](NC(=O)CNC(=O)[C@H](CCC(=O)O)NC(=O)C(C)(C)NC(=O)[C@@H](N)Cc1ccc(O)cc1)[C@@H](C)O)[C@@H](C)O)[C@@H](C)CC)[C@@H](C)CC)C(=O)N[C@@H](CCC(=O)O)C(=O)NCC(=O)NCC(=O)N1CCC[C@H]1C(=O)N[C@@H](CO)C(=O)N[C@@H](CO)C(=O)NCC(=O)N[C@@H](C)C(=O)N1CCC[C@H]1C(=O)N1CCC[C@H]1C(=O)N1CCC[C@H]1C(=O)N[C@@H](CO)C(N)=O` [Example 244] (H-Y[Aib]EGT[αMePhe(2-F)]TSDLSI[αMeL]LD[Orn]K([AEEA-AEEA-γGlu-C18 diacid])AQ[Aib]AFI[dE][αMeY]LIEGGPSSGAPPPS-NH2) are 87.8 nM, 0.0308 nM, 0.82 nM, 0.0252 nM and 0.0225 nM.
Turning to `CC[C@H](C)[C@H](NC(=O)[C@H](CC(C)C)NC(=O)[C@](C)(Cc1ccc(O)cc1)NC(=O)[C@@H](CCC(=O)O)NC(=O)[C@@H](NC(=O)[C@H](Cc1ccccc1)NC(=O)[C@H](C)NC(=O)C(C)(C)NC(=O)[C@H](CCC(N)=O)NC(=O)[C@H](C)NC(=O)[C@H](CCCCNC(=O)COCCOCCNC(=O)COCCOCCNC(=O)CC[C@H](NC(=O)CCCCCCCCCCCCCCCCC(=O)O)C(=O)O)NC(=O)[C@H](CCCN)NC(=O)[C@H](CC(=O)O)NC(=O)[C@H](CC(C)C)NC(=O)[C@](C)(CC(C)C)NC(=O)[C@@H](NC(=O)[C@H](CO)NC(=O)[C@H](C)NC(=O)[C@H](CC(=O)O)NC(=O)[C@H](CO)NC(=O)[C@@H](NC(=O)[C@](C)(Cc1ccccc1F)NC(=O)[C@@H](NC(=O)CNC(=O)[C@H](CCC(=O)O)NC(=O)C(C)(C)NC(=O)[C@@H](N)Cc1ccc(O)cc1)[C@@H](C)O)[C@@H](C)O)[C@@H](C)CC)[C@@H](C)CC)C(=O)N[C@@H](CCC(=O)O)C(=O)NCC(=O)NCC(=O)N1CCC[C@H]1C(=O)N[C@@H](CO)C(=O)N[C@@H](CO)C(=O)NCC(=O)N[C@@H](C)C(=O)N1CCC[C@H]1C(=O)N1CCC[C@H]1C(=O)N1CCC[C@H]1C(=O)N[C@@H](CO)C(N)=O` [Example 246] (H-Y[Aib]EGT[αMePhe(2-F)]TSDASI[αMeL]LD[Orn]K([AEEA-AEEA-γGlu-C18 diacid])AQ[Aib]AFI[dE][αMeY]LIEGGPSSGAPPPS-NH2), the Ki was more than 1010 nM on human Gcg receptor, 0.0509 nM on human GIP receptor and 0.812 nM at human GLP-1R. Further, the figures for the EC50 in assay [1] and in assay [2] were 0.0144 nM and 0.0258 nM, respectively.
For `CC[C@H](C)[C@H](NC(=O)[C@H](CC(C)C)NC(=O)[C@H](Cc1ccc(O)cc1)NC(=O)[C@@H](CCC(=O)O)NC(=O)[C@@H](NC(=O)[C@H](Cc1ccccc1)NC(=O)[C@H](CCC(=O)O)NC(=O)C(C)(C)NC(=O)[C@H](CCC(N)=O)NC(=O)[C@H](C)NC(=O)[C@H](CCCCNC(=O)COCCOCCNC(=O)COCCOCCNC(=O)CC[C@H](NC(=O)CCCCCCCCCCCCCCCCC(=O)O)C(=O)O)NC(=O)[C@H](CCCN)NC(=O)[C@H](CC(=O)O)NC(=O)[C@H](CC(C)C)NC(=O)C(C)(C)NC(=O)[C@@H](NC(=O)[C@H](CO)NC(=O)[C@H](Cc1ccc(O)cc1)NC(=O)[C@H](CC(=O)O)NC(=O)[C@H](CO)NC(=O)[C@@H](NC(=O)C(C)(Cc1ccccc1F)NC(=O)[C@@H](NC(=O)CNC(=O)[C@H](CCC(=O)O)NC(=O)C(C)(C)NC(=O)[C@@H](N)Cc1ccc(O)cc1)[C@@H](C)O)[C@@H](C)O)[C@@H](C)CC)[C@@H](C)CC)C(=O)N[C@@H](CCC(=O)O)C(=O)NCC(=O)NCC(=O)N1CCC[C@H]1C(=O)N[C@@H](CO)C(=O)N[C@@H](CO)C(=O)NCC(=O)N[C@@H](C)C(=O)N1CCC[C@H]1C(=O)N1CCC[C@H]1C(=O)N1CCC[C@H]1C(=O)N[C@@H](CO)C(N)=O` (stereo partly shown) [Example 247], the results for the Ki on human Gcg receptor, at human GIP receptor and on human GLP-1R were more than 1100 nM, more than 55.1 nM and 4.39 nM, respectively. In addition, the EC50 was 0.0491 nM in assay [1] and 0.0622 nM in assay [2].
Turning to `CC[C@H](C)[C@H](NC(=O)[C@H](CC(C)C)NC(=O)[C@H](Cc1ccc(O)cc1)NC(=O)[C@@H](CCC(=O)O)NC(=O)[C@@H](NC(=O)[C@H](Cc1ccccc1)NC(=O)[C@H](CCC(=O)O)NC(=O)C(C)(C)NC(=O)[C@H](CCC(N)=O)NC(=O)[C@H](C)NC(=O)[C@H](CCCCNC(=O)COCCOCCNC(=O)COCCOCCNC(=O)CC[C@H](NC(=O)CCCCCCCCCCCCCCCCC(=O)O)C(=O)O)NC(=O)[C@H](CCCN)NC(=O)[C@H](CC(=O)O)NC(=O)[C@H](CC(C)C)NC(=O)[C@H](CC(C)C)NC(=O)[C@@H](NC(=O)[C@H](CO)NC(=O)[C@H](Cc1ccc(O)cc1)NC(=O)[C@H](CC(=O)O)NC(=O)[C@H](CO)NC(=O)[C@@H](NC(=O)[C@](C)(Cc1ccccc1F)NC(=O)[C@@H](NC(=O)CNC(=O)[C@H](CCC(=O)O)NC(=O)C(C)(C)NC(=O)[C@@H](N)Cc1ccc(O)cc1)[C@@H](C)O)[C@@H](C)O)[C@@H](C)CC)[C@@H](C)CC)C(=O)N[C@@H](CCC(=O)O)C(=O)NCC(=O)NCC(=O)N1CCC[C@H]1C(=O)N[C@@H](CO)C(=O)N[C@@H](CO)C(=O)NCC(=O)N[C@@H](C)C(=O)N1CCC[C@H]1C(=O)N1CCC[C@H]1C(=O)N1CCC[C@H]1C(=O)N[C@@H](CO)C(N)=O` [Example 248] (H-Y[Aib]EGT[αMePhe(2-F)]TSDYSILLD[Orn]K([AEEA-AEEA-γGlu-C18 diacid])AQ[Aib]EFI[dE]YLIEGGPSSGAPPPS-NH2), the Ki is more than 1050 nM on human Gcg receptor, 0.0397 nM on human GIP receptor and 2.4 nM at human GLP-1R. The EC50 in assay [1] was 0.0428 nM; in assay [2], 0.0328 nM.
